Like-named read-outs stand apart in the source and are kept apart here.
Assays:
[1] = target: T1, Full-length, GST-tagged, human CaMKIIδ (Homo sapiens, UniProt Q13557); test: CaMKIIδ binding assay (TR-FRET with BODIPY-labeled probe ligand)
T1 construct: Full-Length, Glutathione-S-Transferase(GST)-Tagged, Human CaMKIIδ was purchased from Carna Biosciences; purchased Carna Biosciences 02-111
How it was run: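 TR-FRET probe-displacement binding: 0.5 nM GST-CaMKIIδ with 10 μg/mL calmodulin, 1 mM CaCl2, 0.21 nM Tb-anti-GST Ab and 300 nM BODIPY probe in HEPES pH 7.6 buffer. Eight-point 4-fold dilutions, 1 hr at room temperature. IC50 from logistic fit; 100% inhibition defined by 3 μM parent compound.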

[2] = test system: phosphorylation of CaMKII-specific site of phospholamban (Thr17, PLN) in the heart; test: In vivo cardiac CaMKII inhibition (P-PLN Thr17 in rat left ventricle, Western blotting); details: po, male SD rat left ventricle, vs vehicle-treated group, read-out: Reduction rate of P-PLN; for inhibition in vivo at 30 mg/kg: 30 mg/kg p.o.
Description: To evaluate potency of test compounds to inhibit cardiac CaMKII kinase in vivo, phosphorylation levels of CaMKII-specific sites of phospholamban (Thr17, PLN) were measured in the heart of rats administered with test compounds at various doses.
Test compounds were suspended in 0.5% [w/v] methylcellulose/water solution and administered (10 or 30 mg/kg) to male CD (SD) IGS rat (6-8 weeks old, n=4) by the p.o. route (5 mL/kg). At 2-4 hours after the administration, rats were sacrificed and the hearts were harvested. After washing the isolated hearts with ice-cold saline, connective tissues were removed on ice, and the isolated left ventricle were frozen into liquid nitrogen gas and stored at −80° C.
The left ventricle samples were homogenized in RIPA-buffer containing phosphatase inhibitors and protease inhibitors. Samples were analyzed by Western blotting using anti-P-PLN (Thr17, Santa Cruz Biotechnology, sc-17024-R) antibody. The band intensities were quantified using an imaging system and were normalized relative to the vehicle-treated group.

[3] = Table 2, activity class for CaMKIIδ
[4] = Table 2, CaMKIIδ binding assay, activity given as class A/B/C
[5] = CaMKIIδ binding assay, activity class per Table 2

T1 sequence (Q13557 1-478 isoform Q13557-12): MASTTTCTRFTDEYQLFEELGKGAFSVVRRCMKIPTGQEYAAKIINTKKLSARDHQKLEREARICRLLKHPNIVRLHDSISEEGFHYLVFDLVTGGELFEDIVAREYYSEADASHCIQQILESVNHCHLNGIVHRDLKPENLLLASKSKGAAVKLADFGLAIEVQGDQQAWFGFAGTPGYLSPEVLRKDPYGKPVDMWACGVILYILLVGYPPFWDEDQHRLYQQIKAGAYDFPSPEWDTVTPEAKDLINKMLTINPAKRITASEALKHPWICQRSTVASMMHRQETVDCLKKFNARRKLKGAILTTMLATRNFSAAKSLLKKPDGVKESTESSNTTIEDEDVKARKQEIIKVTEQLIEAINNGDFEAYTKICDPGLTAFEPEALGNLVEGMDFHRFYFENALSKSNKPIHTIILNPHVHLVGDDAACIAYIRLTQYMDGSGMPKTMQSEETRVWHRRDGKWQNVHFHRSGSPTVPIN

Row | Compound | inhibition in vivo at 30 mg/kg ([2]; 2 hr after administration) [%] | IC50 [1, 4] [nM] | inhibition in vivo at 30 mg/kg ([2]; 4 hr after administration) [%] | other results
1 | C[C@@H](Cn1cnnn1)Oc1cc(-c2cnc(Nc3cn(C4CCN(C5CCOCC5)CC4)nc3C(F)(F)F)nc2)ccc1Cl [Example 484, (S)-5-(3-((1-(1H-tetrazol-1-yl)propan-2-yl)oxy)-4-chlorophenyl)-N-(1-(1-(tetrahydro-2H-pyran-4-yl)piperidin-4-yl)-3-(trifluoromethyl)-1H-pyrazol-4-yl)pyrimidin-2-amine] | > 50 |  |  | IC50 ([1]; CaMKIIδ binding assay, results of Table 2): < 10 nM
2 | C[C@@H](Cn1cnnn1)Oc1cc(-c2cnc(Nc3cn(C4CCN(C5CCOCC5)CC4)nc3OCC(F)(F)F)nc2)ccc1Cl [Example 677, (S)-5-(3-((1-(1H-tetrazol-1-yl)propan-2-yl)oxy)-4-chlorophenyl)-N-(1-(1-(tetrahydro-2H-pyran-4-yl)piperidin-4-yl)-3-(2,2,2-trifluoroethoxy)-1H-pyrazol-4-yl)pyrimidin-2-amine] | > 50 |  |  | IC50 [1, 3]: < 10 nM
3 | C[C@@H](Cn1cnnn1)Oc1cc(-c2cnc(Nc3cn([C@H]4CC[C@H](N5CCOCC5)CC4)nc3C(F)(F)F)nc2)ccc1Cl [Example 695, 5-(3-(((S)-1-(1H-tetrazol-1-yl)propan-2-yl)oxy)-4-chlorophenyl)-N-(1-(trans-4-morpholinocyclohexyl)-3-(trifluoromethyl)-1H-pyrazol-4-yl)pyrimidin-2-amine] | > 50 |  |  | IC50 [1, 3]: < 10 nM
4 | C[C@@H](Cn1cnnn1)Oc1cc(-c2cnc(Nc3cn([C@H]4CC[C@H](N5CCOCC5)CC4)nc3OCC(F)(F)F)nc2)ccc1Cl [Example 772, 5-(3-(((S)-1-(1H-tetrazol-1-yl)propan-2-yl)oxy)-4-chlorophenyl)-N-(1-(trans-4-morpholinocyclohexyl)-3-(2,2,2-trifluoroethoxy)-1H-pyrazol-4-yl)pyrimidin-2-amine] | > 50 | < 10 |  | 
5 | C[C@@H](Cn1cnnn1)Oc1cc(-c2cnc(Nc3cn(C4CC5(C4)CN(C4CCOCC4)C5)nc3OCC(F)(F)F)nc2)ccc1Cl [Example 795, (S)-5-(3-((1-(1H-tetrazol-1-yl)propan-2-yl)oxy)-4-chlorophenyl)-N-(1-(2-(tetrahydro-2H-pyran-4-yl)-2-azaspiro[3.3]heptan-6-yl)-3-(2,2,2-trifluoroethoxy)-1H-pyrazol-4-yl)pyrimidin-2-amine] | > 50 | < 10 |  | 
6 | C[C@@H](Cn1cnnn1)Oc1cc(-c2cnc(Nc3cn([C@H]4CC[C@H](N5CCOCC5)CC4)nc3OCC(F)F)nc2)ccc1Cl [Example 806, 5-(3-(((S)-1-(1H-tetrazol-1-yl)propan-2-yl)oxy)-4-chlorophenyl)-N-(3-(2,2-difluoroethoxy)-1-(trans-4-morpholinocyclohexyl)-1H-pyrazol-4-yl)pyrimidin-2-amine] | > 50 | < 10 |  | 
7 | C[C@@H](Cn1cnnn1)Oc1cc(-c2cnc(Nc3cn(C4CC5(C4)CN(C4CCOCC4)C5)nc3C(F)(F)F)nc2)ccc1Cl [Example 831, (S)-5-(3-((1-(1H-tetrazol-1-yl)propan-2-yl)oxy)-4-chlorophenyl)-N-(1-(2-(tetrahydro-2H-pyran-4-yl)-2-azaspiro[3.3]heptan-6-yl)-3-(trifluoromethyl)-1H-pyrazol-4-yl)pyrimidin-2-amine] |  | < 10 | > 50 | 
8 | CC(C)c1nn([C@H]2CC[C@H](N3CCOCC3)CC2)cc1Nc1ncc(-c2ccc(Cl)c(O[C@@H](C)Cn3cnnn3)c2)cn1 [Example 843, 5-(3-(((S)-1-(1H-tetrazol-1-yl)propan-2-yl)oxy)-4-chlorophenyl)-N-(3-isopropyl-1-(trans-4-morpholinocyclohexyl)-1H-pyrazol-4-yl)pyrimidin-2-amine] |  | < 10 |  | inhibition in vivo at 10 mg/kg ([2]; 10 mg/kg p.o., 4 hr after administration): > 50%
9 | C[C@@H](Cn1cnnn1)Oc1cc(-c2cnc(Nc3cn(C4CC5(C4)CN(CC(C)(C)O)C5)nc3OCC(F)(F)F)nc2)ccc1Cl [Example 946, (S)-1-(6-(4-((5-(3-((1-(1H-tetrazol-1-yl)propan-2-yl)oxy)-4-chlorophenyl)pyrimidin-2-yl)amino)-3-(2,2,2-trifluoroethoxy)-1H-pyrazol-1-yl)-2-azaspiro[3.3]heptan-2-yl)-2-methylpropan-2-ol] |  |  | > 50 | IC50 [1, 5]: < 10 nM
10 | CC(=O)OC(C)(C)CN1CC2(CC(n3cc(Nc4ncc(-c5ccc(Cl)c(O[C@@H](C)Cn6cnnn6)c5)cn4)c(OCC(F)(F)F)n3)C2)C1 [Example 951, 1-[6-(4-{[5-(4-chloro-3-{[(2S)-1-(1H-tetrazol-1-yl)propan-2-yl]oxy}phenyl)pyrimidin-2-yl]amino}-3-(2,2,2-trifluoroethoxy)-1H-pyrazol-1-yl)-2-azaspiro[3.3]heptan-2-yl]-2-methylpropan-2-yl acetate] |  |  | > 50 | IC50 [1, 5]: < 10 nM

From patent US10543212B2, “Substituted amines for treating cardiac diseases” (Cardurion Pharmaceuticals, LLC, priority 2017, dated 2020)
